Experimental data: article PMC3750913 (BMC Microbiology, 2013)

What was measured:
[1] = system: HCV; test: Analysis of drug effects post viral entry; format: cell-based, hepatitis C virus; details: HCV, Huh-7.5 cells; CHLA 50 μM, PUG 50 μM, Heparin 1000 μg/ml
[2] = system: MV; test: Viral cell-to-cell spread assay; format: cell-based, measles virus; details: MV
[3] = system: RSV; test: Analysis of drug effects post viral entry; format: cell-based, respiratory syncytial virus; details: RSV, HEp-2 cells; CHLA 1 μM, PUG 2 μM, Heparin 1 μg/ml
[4] = system: RSV; test: Viral cell-to-cell spread assay; format: cell-based, respiratory syncytial virus; details: RSV
[5] = system: HCMV; test: Viral penetration assay; format: cell-based, human cytomegalovirus; details: HCMV
[6] = system: ADV-5; design: method as in PMID 16894186, PMID 10704346; details: HS-mediated entry; ref [51], [52]; cited from earlier work
[7] = system: RSV; test: Viral inactivation assay; format: cell-based, respiratory syncytial virus; details: RSV, HEp-2 cells; CHLA 1 μM, PUG 2 μM, Heparin 1 μg/ml
[8] = system: DENV-2; test: Viral attachment assay, method 2 (virus-specific cellular ELISA); format: cell-based, dengue virus type 2; details: DENV-2 MOI 5, ELISA, 4°C; highest inhibitory concentration of the compounds
[9] = system: HCV; test: as above; format: cell-based, hepatitis C virus; details: HCV MOI 0.1, ELISA, 4°C; highest inhibitory concentration of the compounds
[10] = system: HCV; test: Viral attachment assay, method 1 (host cell infection); format: cell-based, hepatitis C virus; details: HCV, Huh-7.5 cells, 4°C; CHLA 50 μM, PUG 50 μM, Heparin 1000 μg/ml
[11] = system: DENV-2; test: Viral penetration assay; format: cell-based, dengue virus type 2; details: DENV-2, Vero cells; CHLA 25 μM, PUG 25 μM, Heparin 200 μg/ml
[12] = system: HCV; test: Viral penetration assay; format: cell-based, hepatitis C virus; details: HCV
[13] = system: HCMV; test: Analysis of drug effects post viral entry; format: cell-based, human cytomegalovirus; details: HCMV, HEL cells; CHLA 60 μM, PUG 40 μM, Heparin 30 μg/ml
[14] = system: DENV-2; test: Viral inactivation assay; format: cell-based, dengue virus type 2; details: DENV-2, Vero cells; CHLA 25 μM, PUG 25 μM, Heparin 200 μg/ml
[15] = system: RSV; test: Viral attachment assay, method 1 (host cell infection); format: cell-based, respiratory syncytial virus; details: RSV, HEp-2 cells, 4°C; CHLA 1 μM, PUG 2 μM, Heparin 1 μg/ml
[16] = system: HCMV; test: Viral cell-to-cell spread assay; format: cell-based, human cytomegalovirus; details: HCMV
[17] = system: HCMV; test: Viral attachment assay, method 2 (virus-specific cellular ELISA); format: cell-based, human cytomegalovirus; details: HCMV MOI 5, ELISA, 4°C; highest inhibitory concentration of the compounds
[18] = system: HCMV; test: Viral attachment assay, method 1 (host cell infection); format: cell-based, human cytomegalovirus; details: HCMV, HEL cells, 4°C; CHLA 60 μM, PUG 40 μM, Heparin 30 μg/ml
[19] = system: HCV; test: Viral cell-to-cell spread assay; format: cell-based, hepatitis C virus; details: HCV
Protocol: (A) Schematic of the experiment (left) with the virus concentration (PFU/well) and step-wise incubation periods (i, ii, iii) indicated for each virus in the table on the right. Virus infections were established (i) in the different cell types by direct inoculation (HCMV, DENV-2, MV, and RSV) or electroporation of viral RNA (HCV; *), and the cell monolayers were washed with citrate buffer or PBS before being covered with an overlay medium that prevents secondary infection. Initial virus plaques were allowed to form in the subsequent infections (ii), and then the test compounds were added to the overlay medium for an additional time of incubation (iii) before analysis of viral plaque size by immune fluorescence microscopy. Five random virus-positive plaques at the endpoint of the experiment were evaluated for each treatment group of viruses, and the data was plotted as “fold change of plaque area” against the size of the initial viral plaques formed prior to test compound treatment. Analyses for (B) HCMV, (C) HCV, (D) DENV-2, (E) MV, and (F) RSV are indicated in each additional panel. The S29 cell line and the FIP inhibitor were included as controls for HCV and MV, respectively. Results shown are means ± SEM from three independent experiments and representative micrographs of the evaluated plaques are provided in Additional file 1 Figure S1, Additional file 2 Figure S2, Additional file 3 Figure S3, Additional file 4 Figure S4 and Additional file 5 Figure S5. See text for details.
The examination of HCV spread is based on previously described protocol with some modifications. Huh-7.5 cells were electroporated with HCV Jc1FLAG2(p7-nsGluc2A) RNA (10 μg) as described above to establish random productive infections in the cell population, and then mixed with naïve cells at a ratio of 1:1 before seeding in 12-well plates. […] Medium was changed 24 h post-electroporation with an overlay medium containing the test drugs or control and 0.5% methylcellulose, and the plates were further incubated for 5 days before analysis of HCV-positive foci through immunostaining.
For immunofluorescence analysis of viral plaque size due to spread, the overlay media were removed and the wells were fixed with ice-cold methanol before blocking with 3% BSA. Samples were then treated at 37°C for 1 h with the respective mouse monoclonal primary antibodies diluted in PBS containing 3% BSA: anti-HCMV gB antibody (1:1,000), anti-NS5A 9E10 antibody for HCV (1:25,000), anti-flavivirus group antibody (1:400) for DENV-2, and anti-RSV fusion protein antibody (1:1,000). After incubation, the wells were washed with PBS three times before applying Alexa Fluor 488 goat anti-mouse IgG (H + L) antibody (Invitrogen), diluted at 1:1,000 (HCMV and RSV) or 1:400 (DENV-2 and HCV) in PBS containing 3% BSA. Following incubation at 37°C for 1 h, the samples were washed with PBS three times prior to visualization by fluorescence microscopy. The fluorescence expression of MV-EGFP could be readily detected without addition of antibodies. Photomicrographs were taken at × 100 magnification (Leica Microsystems; Wetzlar, Germany) and viral plaque sizes were then analyzed with MetaMorph software (Molecular Devices; Sunnyvale, CA, USA). In the case of HCV, cellular nuclei were stained with Hoechst dye (Sigma) prior to visualization and the number of cells in the virus-positive foci was determined. For all virus tested, a total of five random virus-positive plaques were evaluated for each treatment group per independent experiment. Comparison was made between viral plaques stained prior to drug addition and those at the endpoint of the experiment, and the data were plotted as “fold change of plaque area”.

[20] = system: DENV-2; test: Viral attachment assay, method 1 (host cell infection); format: cell-based, dengue virus type 2; details: DENV-2, Vero cells, 4°C; CHLA 25 μM, PUG 25 μM, Heparin 200 μg/ml
[21] = system: MV; test: as above; format: cell-based, measles virus; details: MV, CHO-SLAM cells, 4°C; CHLA 90 μM, PUG 50 μM, Heparin 10 μg/ml
[22] = system: DENV-2; test: Analysis of drug effects post viral entry; format: cell-based, dengue virus type 2; details: DENV-2, Vero cells; CHLA 25 μM, PUG 25 μM, Heparin 200 μg/ml
[23] = system: MV; test: Viral penetration assay; format: cell-based, measles virus; details: MV
[24] = system: HCMV; test: Viral inactivation assay; format: cell-based, human cytomegalovirus; details: HCMV, HEL cells; CHLA 60 μM, PUG 40 μM, Heparin 30 μg/ml
[25] = system: DENV-2; test: Viral cell-to-cell spread assay; format: cell-based, dengue virus type 2
[26] = system: RSV; test: Viral attachment assay, method 2 (virus-specific cellular ELISA); format: cell-based, respiratory syncytial virus; details: RSV MOI 5, ELISA, 4°C; highest inhibitory concentration of the compounds
[27] = system: MV; test: Analysis of drug effects post viral entry; format: cell-based, measles virus; details: MV, CHO-SLAM cells; CHLA 90 μM, PUG 50 μM, Heparin 10 μg/ml
[28] = CHO-SLAM cells, CHLA 90 μM, PUG 50 μM, Heparin 10 μg/ml
[29] = HEL cells, CHLA 60 μM, PUG 40 μM, Heparin 30 μg/ml
[30] = Huh-7.5 cells, CHLA 50 μM, PUG 50 μM, Heparin 1000 μg/ml

Heparin [reference compound]
Window of antiviral effects: Post-infection, inhibitory effect relative to DMSO control [1]: + (+ 25–50%) | Window of antiviral effects: Cell-to-cell spread, inhibitory effect relative to DMSO control [2, 28]: - (- < 25%) | effect on viral plaque size (cell-to-cell spread) ([2]; Figure 7): limited effect | Window of antiviral effects: Post-infection, inhibitory effect relative to DMSO control [3]: - (- < 25%) | Window of antiviral effects: Cell-to-cell spread, inhibitory effect relative to DMSO control ([4]; HEp-2 cells, CHLA 1 μM, PUG 2 μM, Heparin 1 μg/ml): - (- < 25%) | effect on viral plaque size (cell-to-cell spread) ([4]; Figure 7): limited effect | Window of antiviral effects: Penetration, inhibitory effect relative to DMSO control [5, 29]: + (+ 25–50%) | protection of the host cell from infection during virus penetration ([5]; shift 4°C to 37°C, Figure 4): < 40% | maximum inhibition of ADV-5 by soluble heparin [6]: ≤ 50% | Window of antiviral effects: Free particle, inhibitory effect relative to DMSO control [7]: + (+ 25–50%) | Window of antiviral effects: Attachment Method 2, inhibitory effect relative to DMSO control [8]: +++ (+++ > 75%) | Window of antiviral effects: Attachment Method 2, inhibitory effect relative to DMSO control [9]: +++ (+++ > 75%) | Window of antiviral effects: Attachment Method 1, inhibitory effect relative to DMSO control [10]: + (+ 25–50%) | Window of antiviral effects: Penetration, inhibitory effect relative to DMSO control [11]: ++ (++ 50–75%) | Window of antiviral effects: Penetration, inhibitory effect relative to DMSO control [12, 30]: - (- < 25%) | protection of the host cell from infection during virus penetration ([12]; shift 4°C to 37°C, Figure 4): < 40% | Window of antiviral effects: Post-infection, inhibitory effect relative to DMSO control [13]: - (- < 25%) | Window of antiviral effects: Free particle, inhibitory effect relative to DMSO control [14]: ++ (++ 50–75%) | Window of antiviral effects: Attachment Method 1, inhibitory effect relative to DMSO control [15]: +++ (+++ > 75%) | Window of antiviral effects: Cell-to-cell spread, inhibitory effect relative to DMSO control [16, 29]: - (- < 25%) | effect on viral plaque size (cell-to-cell spread) ([16]; Figure 7): limited effect | Window of antiviral effects: Attachment Method 2, inhibitory effect relative to DMSO control [17]: +++ (+++ > 75%) | Window of antiviral effects: Attachment Method 1, inhibitory effect relative to DMSO control [18]: ++ (++ 50–75%) | Window of antiviral effects: Cell-to-cell spread, inhibitory effect relative to DMSO control [19, 30]: - (- < 25%) | effect on viral plaque size (cell-to-cell spread) ([19]; Figure 7): limited effect | Window of antiviral effects: Attachment Method 1, inhibitory effect relative to DMSO control [20]: +++ (+++ > 75%) | Window of antiviral effects: Attachment Method 1, inhibitory effect relative to DMSO control [21]: +++ (+++ > 75%) | Window of antiviral effects: Post-infection, inhibitory effect relative to DMSO control [22]: - (- < 25%) | Window of antiviral effects: Penetration, inhibitory effect relative to DMSO control [23, 28]: + (+ 25–50%) | protection of the host cell from infection during virus penetration ([23]; shift 4°C to 37°C, Figure 4): < 40% | Window of antiviral effects: Free particle, inhibitory effect relative to DMSO control [24]: + (+ 25–50%) | Window of antiviral effects: Cell-to-cell spread, inhibitory effect relative to DMSO control ([25]; DENV-2, Vero cells, CHLA 25 μM, PUG 25 μM, Heparin 200 μg/ml): - (- < 25%) | effect on viral plaque size (cell-to-cell spread) ([25]; DENV-2, Figure 7): limited effect | Window of antiviral effects: Attachment Method 2, inhibitory effect relative to DMSO control [26]: ++ (++ 50–75%) | Window of antiviral effects: Post-infection, inhibitory effect relative to DMSO control [27]: - (- < 25%)
